Holding throughout (assay): NCI tumour cell line growth inhibition, 48 h
Assay [1] deals with SF-539 CNS.
For assay [2], the system named is HOP-18 NSCLC.
Assay [3] concerns A549 NSCLC.
For assay [4], the system named is LOX IMVI melanoma.
For assay [5], the system named is DLD-1 colon.
The test system of assay [6] is UO-31 renal.
The test system of assay [7] is HCT-15 colon.
Assay [8] concerns HCC-2998 colon.
Assay [9] relates to MDA-MB-435.
Assay [10] relates to DU-145 prostate.

SMILES strings stand for the structures.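 Grown in 96-well plates, cells were treated for 48 hours with each compound at five concentrations. Insufficient inhibition: endpoint recorded as highest concentration tested. GI50 marks 50% less growth. TGI marks complete inhibition of growth.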

With `COc1ccc(C2C3=C(COC3=O)Oc3cc4c(cc32)OCO4)cc1` (centres undefined), the TGI is 56.6 µM in assay [1]; 89.5 µM in assay [2]; greater than 100 µM in assay [3]; greater than 100 µM in [4]; greater than 100 µM in [5]; 74 µM in assay [6]. Further, the TGI in assay [7] is greater than 100 µM.

Regarding `O=C(C=Nc1ccccc1C(=O)[O-])c1cccs1.O=C(C=Nc1ccccc1C(=O)[O-])c1cccs1.[Zn+2]`, the TGI in assay [1] is greater than 100 µM; in [2] it was greater than 100 µM; in assay [3], greater than 100 µM; in assay [8], greater than 10 µM; in [4], 71.5 µM; in assay [5], greater than 100 µM. Also, the TGI in assay [6] and in assay [7] was greater than 100 µM each time.

With `CCCN1C(=O)CNC(=O)c2[nH]cnc21`, the TGI in assay [1], in assay [2], in assay [3], in assay [8], in [4] and in [5] was greater than 100 µM in each case. The TGI in assay [6] and in assay [7] was greater than 100 µM each time.

Turning to `O=C(Cc1ccccc1)NS(=O)(=O)c1ccccc1`, the TGI in assay [1], in [2], in assay [3], in assay [8], in assay [4] and in [5] was greater than 100 µM each time. This compound returned a TGI in [6] greater than 100 µM.

Turning to `CCOC(=O)C(C(=O)OCC)=c1sc(=C(C(=O)OCC)C(=O)OCC)s1`, the TGI in assay [3], in assay [8], in [4], in assay [5] and in assay [7] was greater than 100 µM throughout.

Consider `O=NN(CCCl)C(=O)N[C@H]1CCCC[C@@H]1Cl`, for which the TGI in [1], in [2], in assay [3], in [8], in assay [5] and in [6] was greater than 100 µM in each case. This compound also displayed a TGI in assay [7] greater than 100 µM.

With `FC(F)(F)c1cccc(C2SCc3nc4ccccc4n32)c1` (centres undefined), the TGI in assay [1], in assay [3], in assay [8], in assay [5] and in assay [6] was greater than 100 µM each time.

For `CCCCCCCCCCCCCCCCCC[N+](C)(C)Cc1ccc(C[N+](C)(C)CCCCCCCCCCCCCCCCCC)cc1`, the TGI in [2] turned out to be 34.8 µM; in assay [3], 38.8 µM; in [8] it was 93.7 µM; in [4], 32.3 µM; in assay [5], 57.3 µM; in [6], 56.3 µM. The TGI in [7] was greater than 100 µM.

As for `C=C[C@H]1C=Cc2c(OC)cccc2[C@@H]1COP1(=S)NC(C)C(c2ccccc2)O1` (some centres undefined), the TGI in assay [1], in assay [2], in [3], in assay [8], in assay [4] and in assay [5] was greater than 100 µM each time.

With `c1ccc2c(c1)[nH]c1c2ncc2[nH]c3ccccc3c21`, the TGI in [1] amounted to 7.21 µM; in [2] it was 14.9 µM; in [3], 22.6 µM; in [8], 7.07 µM; in assay [5], 19.7 µM; in [6] it was 8.79 µM. Besides, the TGI in assay [7] is 7.7 µM.

As for `Cc1c(CC/C(=N\Nc2ccc([N+](=O)[O-])cc2[N+](=O)[O-])c2ccccc2)c2ccccc2n1C`, the TGI in assay [1], in assay [3], in assay [8], in assay [4], in assay [5] and in assay [6] was greater than 100 µM in each case. In [7], this compound registered a TGI greater than 100 µM.

For `O=C(O)c1ccccc1Nc1ccc2nnc(-c3ccncc3)n2n1`, the GI50 was 14.6 µM in assay [1]; 13.3 µM in assay [3]; 23.5 µM in assay [8]; 4.02 µM in assay [9]; 1.97 µM in assay [4]; 3.81 µM in assay [6]. For the same compound, the GI50 was 11.5 µM in assay [10] and 6.88 µM in assay [7]. For the same compound, the TGI in assay [1] was found to be 55.8 µM; in assay [3] it was 62 µM; in assay [8] it was 52 µM; in [9], 23.1 µM; in assay [4], 4.1 µM; in [6], 15.5 µM. The figures for the TGI in [10] and in [7] were 25.6 µM and 66.3 µM, respectively.

On to `Clc1ccc2c(NCCNc3nc(N4CCCC4)nc4ccccc34)ccnc2c1`, for which the GI50 is 1.76 µM in [1]; 0.29 µM in assay [3]; 1.78 µM in assay [8]; 1.6 µM in [9]; 0.863 µM in assay [4]; 1.26 µM in assay [6]. Besides, the GI50 in [10] is 1.17 µM; in assay [7], 0.254 µM. Further, the TGI in assay [1] was determined as 3.25 µM; in assay [3] it was 2.54 µM; in [8], 4.37 µM; in [9], 3.11 µM; in assay [4] it was 2.34 µM; in [6] it was 2.51 µM. The TGI in assay [10] was determined as 2.73 µM; in assay [7], 2.92 µM.

Regarding `c1ccc2c(CNCCCCCCCCCCCCNCc3cccc4ccccc34)cccc2c1`, the TGI worked out at 3 µM in assay [1]; 9.56 µM in assay [2]; 3.37 µM in assay [3]; 2.52 µM in assay [4]; 3.31 µM in [5]; 3.06 µM in assay [6]. For the same compound, the TGI in [7] was 3.08 µM.

Take `N#Cc1nn(-c2cc(=O)[nH]c3ccc(Br)cc23)c(N)c1C#N`: the GI50 in assay [1] was 51.7 µM; in [3], greater than 100 µM; in [8], greater than 100 µM; in assay [9], greater than 100 µM; in assay [4] it was greater than 100 µM; in assay [6], greater than 100 µM. Besides, the GI50 in assay [10] and in assay [7] was greater than 100 µM in each case. In addition, the TGI in assay [1], in [3], in [8], in assay [9], in [4] and in [6] was greater than 100 µM in each case. For the same compound, the TGI in assay [10] and in assay [7] was greater than 100 µM throughout.

For the origin of these results see PubChem BioAssay (NCI).
